Consider 17 compounds from patent EP3575310A1, “PHOSPHONATE DERIVATES OF BETULIN COMPOUNDS WITH ANTIVIRAL ACTIVITY, METHOD FOR THEIR PREPARATION AND THEIR APPLICATION” (Uniwersystet Slaski w Katowicach, priority 2018, dated 2019).

A word on the pEC50: it is the EC50 on a negative log10 scale, so that one unit is a factor of ten. As a reminder, the CC50 is the concentration that lowers cell viability or growth by half. As a reminder, the pIC50 is the negative decadic logarithm of the IC50, by convention in mol/L. Higher therefore signals a low IC50.

pEC50, pIC50: −log10 of the molar value. Read-outs that look alike come from different tables or passages of the source. Bounds are passed on as bounds.

Data set [1] has as its system HIV. The conditions noted are these: cited from earlier work.
Data set [2] concerns HIV-1. The conditions noted are these: cited from earlier work.
In data set [3] the test system is HIV-1. Conditions: inhibiting the HIV-1 replication; cited from earlier work.
Data set [4] can be described thus: Cytotoxicity in lymphoid CEMT4 cell cultures, MTT method. Type of data set: cell-based. The conditions noted are these: human, CEMT4 cells, viability relative to control cultures. On the procedure: Biological testing of compounds is based on the determination of their cytotoxicity, including determination of CC50 and CC90 (Cytotoxity Concentration) and the assessment of the ability to inhibit viral replication in cell cultures and the determination of IC50 and IC90 (Inhibitory Concentration). Cytotoxicity of compounds is assessed in cultures of established lymphoid CEMT4 cell lines using the MTT method. […] The cultures are run in triplicate for every concentration of the tested compounds. HIV replication inhibition by the studied compounds is assessed in cultures of established lymphoid CEMT4 cell lines. Cells are incubated for 24 hours in a medium (RPMI 10% FBS) supplemented with known concentrations of the tested preparations. The cells are then infected with a laboratory isolate of HIV-1 (wild type, S1). The cultures are prepared in triplicate for every concentration of the tested compound. Cultures containing identical number of infected cells grown in a medium not containing the tested substances are used as a positive control (100% viral replication). HIV inhibiting ability is determined after 7 days of growing the culture by determining the viral p24 protein in the medium above the cells. The amount of the protein corresponds to the number of newly synthesized viruses. Inhibition of replication is measured by reducing the amount of p24 protein in cultures enriched in test compounds with respect to the amount of p24 in a culture carried out in a standard medium. The amount of p24 viral protein is determined using an anti-p24 immunoenzymatic test. The results are presented in the form of CC50, IC50 and TI (Therapeutic Index) values. Table 1. Results of determination of anti-HIV activity of synthesized compounds and of the reference compound, AZT
(In general: Tetrazolium assays rely on reduction of a dye to a coloured formazan, in cell work by metabolically active cells.)

The subject of data set [5] is HIV-1 (wild type, S1). Nature of the data set: microbe, parasite or virus in culture. It is filed as cell-based.
Protocol: Biological testing of compounds is based on the determination of their cytotoxicity, including determination of CC50 and CC90 (Cytotoxity Concentration) and the assessment of the ability to inhibit viral replication in cell cultures and the determination of IC50 and IC90 (Inhibitory Concentration). Cytotoxicity of compounds is assessed in cultures of established lymphoid CEMT4 cell lines using the MTT method. […] The cultures are run in triplicate for every concentration of the tested compounds. HIV replication inhibition by the studied compounds is assessed in cultures of established lymphoid CEMT4 cell lines. Cells are incubated for 24 hours in a medium (RPMI 10% FBS) supplemented with known concentrations of the tested preparations. The cells are then infected with a laboratory isolate of HIV-1 (wild type, S1). The cultures are prepared in triplicate for every concentration of the tested compound. […] HIV inhibiting ability is determined after 7 days of growing the culture by determining the viral p24 protein in the medium above the cells. […] Inhibition of replication is measured by reducing the amount of p24 protein in cultures enriched in test compounds with respect to the amount of p24 in a culture carried out in a standard medium. The amount of p24 viral protein is determined using an anti-p24 immunoenzymatic test. […]
Data set [6] relates to HIV-1 infected H9 lymphocytes. The conditions noted are these: cited from earlier work.

Turning to `C=C(C)[C@@H]1CC[C@]2(COC(=O)C(C)(C)CC(=O)O)CC[C@]3(C)[C@H](CC[C@@H]4[C@@]5(C)CC[C@H](OC(=O)CC(C)(C)C(=O)O)C(C)(C)[C@@H]5CC[C@]43C)[C@@H]12` [3-O-(3',3'-dimethylsuccinyl)-28-O-(2",2"-dimethylsuccinyl)betulin], in data set [1], the pEC50 is 9.06.
Take `C=C(C)[C@@H]1CC[C@]2(C(=O)O)CC[C@]3(C)[C@H](CC[C@@H]4[C@@]5(C)CC[C@H](O)C(C)(C)[C@@H]5CC[C@]43C)[C@@H]12` [Item 2, (3β)-3-hydroxy-lup-20(29)-en-28-oic acid]: in data set [2], the “activity against HIV-1” value is “weak activity”. Besides, the pEC50 in data set [3] is 5.80.
`CCOP(=O)(C=C(C)[C@@H]1CC[C@]2(C(=O)O)CC[C@]3(C)[C@H](CC[C@@H]4[C@@]5(C)CC[C@H](OC(=O)CC(C)(C)CC(=O)O)C(C)(C)[C@@H]5CC[C@]43C)[C@@H]12)OCC` [Item 11]: in data set [4], the CC50 is greater than 68000 nM.
Regarding `C=C(C)[C@@H]1CC[C@]2(CO)CC[C@]3(C)[C@H](CC[C@@H]4[C@@]5(C)CC[C@H](O)C(C)(C)[C@@H]5CC[C@]43C)[C@@H]12` [Item 1, lup-20(29)-ene-3β,28-diol], the “activity against HIV-1” value in data set [2] was “weak activity”.
Consider `C=C(C)[C@@H]1CC[C@]2(C(=O)O)CC[C@]3(C)[C@H](CC[C@@H]4[C@@]5(C)CCC(=O)C(C)(C)[C@@H]5CC[C@]43C)[C@@H]12` [betulonic acid], for which the “activity against HIV-1” value in data set [2] is given as “weak activity”.
`CCOP(=O)(C=C(C)[C@@H]1CC[C@]2(C(=O)O)CC[C@]3(C)[C@H](CC[C@@H]4[C@@]5(C)CC[C@H](OC(=O)CC(C)(C)C(=O)O)C(C)(C)[C@@H]5CC[C@]43C)[C@@H]12)OCC` [Item 9] displayed a CC50 in data set [4] greater than 69000 nM.
In the case of `CC(C)[C@@H]1CC[C@]2(C(=O)O)CC[C@]3(C)C(CCC4[C@@]5(C)CC[C@H](O)C(C)(C)C5CC[C@]43C)C12` (stereo partly drawn) [dihydrobetulinic acid], the pEC50 in data set [3] was 6.05.
`CCOP(=O)(C=C(C)[C@@H]1CC[C@]2(C(=O)O)CC[C@]3(C)[C@H](CC[C@@H]4[C@@]5(C)CC[C@H](OC(=O)CCC(C)(C)C(=O)O)C(C)(C)[C@@H]5CC[C@]43C)[C@@H]12)OCC` [Item 10]: the CC50 in data set [4] was greater than 68000 nM.
For `C=C(CP(=O)(OCC)OCC)[C@@H]1CC[C@]2(C(=O)O)CC[C@]3(C)[C@H](CC[C@@H]4[C@@]5(C)CC[C@H](OC(=O)CC(C)(C)C(=O)O)C(C)(C)[C@@H]5CC[C@]43C)[C@@H]12` [Item 5], the CC50 in data set [4] is greater than 69000 nM.
In data set [4], `C=C(CP(=O)(OCC)OCC)[C@@H]1CC[C@]2(C(=O)O)CC[C@]3(C)[C@H](CC[C@@H]4[C@@]5(C)CC[C@H](OC(=O)CC(C)(C)CC(=O)O)C(C)(C)[C@@H]5CC[C@]43C)[C@@H]12` [Item 7] gave a CC50 greater than 68000 nM.
`C=C(CP(=O)(OCC)OCC)[C@@H]1CC[C@]2(C(=O)O)CC[C@]3(C)[C@H](CC[C@@H]4[C@@]5(C)CC[C@H](OC(=O)CCC(C)(C)C(=O)O)C(C)(C)[C@@H]5CC[C@]43C)[C@@H]12` [Item 6] showed a CC50 in data set [4] greater than 68000 nM.
For `C=C(C)[C@@H]1CC[C@]2(CO)CC[C@]3(C)[C@H](CC[C@@H]4[C@@]5(C)CC[C@H](O)C(C)(C)[C@@H]5CC[C@]43C)[C@@H]12` [Item 1], the IC50 entry in data set [5] was “NO”.
Regarding “3-O-(3,3'-dimethylsuccinyl)betulinic acid [Item 3]”, the pEC50 in data set [6] was 8.46.
As for `C=C(C)[C@@H]1CC[C@]2(COC(=O)CC(C)(C)CC(=O)O)CC[C@]3(C)[C@H](CC[C@@H]4[C@@]5(C)CC[C@H](OC(=O)CC(C)(C)CC(=O)O)C(C)(C)[C@@H]5CC[C@]43C)[C@@H]12` [3,28-di-O-(3',3'-dimethylglutaryl)betulin], the pEC50 in data set [1] was 9.18.
With `C=C(C)[C@@H]1CC[C@]2(C(=O)O)CC[C@]3(C)[C@H](CC[C@@H]4[C@@]5(C)CC[C@H](O)C(C)(C)[C@@H]5CC[C@]43C)[C@@H]12` [Item 2], half-maximal cytotoxicity in data set [4] (CC50) was put at 5000 nM.
As to `Cc1cn([C@H]2C[C@H](N=[N+]=[N-])[C@@H](CO)O2)c(=O)[nH]c1=O` [Item 12], the CC50 in data set [4] is greater than 280000 nM.
Turning to `C=C(C)[C@@H]1CC[C@]2(C(=O)O)CC[C@]3(C)[C@H](CC[C@@H]4[C@@]5(C)CC[C@H](OC(=O)CC(C)(C)C(=O)O)C(C)(C)[C@@H]5CC[C@]43C)[C@@H]12` [Item 3], the pIC50 in data set [5] (Human immunodeficiency virus 1, CEM-T4) is 7.52.
